From ChEMBL document CHEMBL1124880 (J Med Chem, 1990)

Experiments:
Rattus norvegicus = species: Rattus norvegicus; experiment: Minimal effective dose in an rat anti-immobility effect using behavioral despair test; assay type: functional; details: read-out: MED
[1] = target: Adenosine receptor A1 (Rattus norvegicus) (UniProt P25099); experiment: Binding affinity for Adenosine A1 receptor in cerebral cortices of Sprague-Dawley male rats using [3H]CHA
Adenosine A2 receptor [2] = target: T1, Adenosine A2 receptor (Rattus norvegicus, UniProt P29276+P30543)
Adenosine receptor A1 [3] = target: T2, Adenosine receptor A1 (Rattus norvegicus, UniProt P25099); experiment: Binding affinity for Adenosine A1 receptor in cerebral cortices of Sprague-Dawley male rats using [3H]-CHA
T2 sequence (P25099 whole entry): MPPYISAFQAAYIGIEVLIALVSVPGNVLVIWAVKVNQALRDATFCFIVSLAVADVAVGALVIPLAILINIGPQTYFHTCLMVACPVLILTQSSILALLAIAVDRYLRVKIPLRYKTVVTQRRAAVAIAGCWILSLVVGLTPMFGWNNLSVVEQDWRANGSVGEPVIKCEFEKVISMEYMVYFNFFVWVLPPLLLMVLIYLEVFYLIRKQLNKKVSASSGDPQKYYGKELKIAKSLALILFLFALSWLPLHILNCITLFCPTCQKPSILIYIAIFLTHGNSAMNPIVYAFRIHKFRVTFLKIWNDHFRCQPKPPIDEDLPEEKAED

Adenosine receptor A1 [4] = target: T2, Adenosine receptor A1
Adenosine receptor A1 [5] = target: T2, Adenosine receptor A1; experiment: Evaluated for the binding affinity towards the Adenosine A1 receptor in cerebral cortices of Sprague-Dawley male rats using [3H]CHA as radioligand.
Adenosine A2 receptor [6] = target: T1, Adenosine A2 receptor; experiment: Binding affinity for Adenosine A2 receptor in corpora striata of rats using [3H]NECA; assay type: protein assay

CCc1nnc2c(N(C)C)nc3ccccc3n12
minimal effective dose (Rattus norvegicus): ≤ 3.2 mg/kg
IC50 [1]: 12000 nM

Nc1nc2ccc(Cl)cc2n2c(-c3ccc(Cl)cc3)nnc12
IC50 (Adenosine A2 receptor [2]): 33 nM
IC50 (Adenosine receptor A1 [3]): 510 nM

OC[C@H]1O[C@@H](n2cnc3c(Nc4ccccc4)ncnc32)[C@H](O)[C@@H]1O [N6-PHENYLADENOSINE]
Ki (Adenosine receptor A1 [4]): 3 nM
IC50 (Adenosine receptor A1 [5]): 6.5 nM
Ki (Adenosine A2 receptor [6]): 50000 nM
